Data set [1] can be described thus: Encapsulation efficiency of doxorubicin hydrochloride in siosomes (absorbance at 480 nm after gel filtration). The format is physicochemical. How it is done:
A doxorubicin hydrochloride solution at 10 mg/ml was prepared using physiological saline. The predetermined amount of the doxorubicin hydrochloride solution was added to the sugar siosome dispersion using the cationic organosilicon compounds such as 1.2-(Dimethyldecylsilyl)ethyl-beta-D-glucosamin, 2.2-(Dimethyloctylsilylcholin)ethyl-beta-D-glucopyranosid and/or 1.2-(DiN,N,N,trimethylammoniadecylsilyl)ethyl-beta-D-glucopyranosid and the mixture was adjusted to pH 7.4, using 1 N NaOH or saturated sodium hydrogencarbonate and the mixture was stirred at 65°C for 30 minutes the thereby introduce the doxorubicin hydrochloride in the siosomes.
After doxorubicin hydrochloride introduction, the sample was cooled in an ice bath. Gel filtration was conducted using a column (Sepharose 4, fast flow, having a diameter of 2.8 cm and a length of 20 cm, fully substituted with 10% sucrose (pH 6.5)) to remove the doxorubicin hydrochloride that had not been introduced in the siosomes.
The amount of the sugar silanes in the siosomes, the amounts of the doxorubicin hydrochloride encapsulated in the siosomes and the siosomes themselves were measured by the same methods as in the above examples.
Concentration of the doxorubicin hydrochloride encapsulated in the siosomes was determined by measuring absorbance at 480 nm, using a spectrophotometer for the solution prepared by adding 2 ml of methanol to 40 µl of the doxorubicin siosomes. An alternative HPLC-based assay has also been used for the quantification of the doxorubicin in the formulations.
The above procedures described in example 16 were employed to prepare the carrier siosomes systems in this example. According to these methods of preparation, a dispersion of each of the following organo-silicon compounds were prepared, using doxorubicin hydrochloride solutions at […]. • Sil 8.1: Decyldimethylsilyl-α-D-galactopyranosid • Sil 9.1: Dodecyldimethylsilyl-α-D-glucopyranosid • SIL 15: 1-O-Dioctadecylsilyl-di(2,3,4,6-O-tetracetyl-β-D-galactopyranosid) • SIL 14: 1-o-Dioctadecylsilyl-di(2,3,4,6-O-tetracetyl-β-D-glucopyranosid)1-o- • SIL17: Didodecylsilyl-di(2,3,4,6-O-tetracetyl-β-D-glucopyranosid) • SIL18: Tridodecylsilyl-(2,3,4,6-O-tetracetyl-β-D-glucopyranosid) • Sil22.1 Di(octadecanoyloxy)dimethylsilan
The following parameters have been determined: 1 Physico chemical properties 2 Encapsulated efficiency of doxorubicin 3 Stability 4 Particle size distribution prior to lyophilisation and after dehydration using sterile water for injection 5 Release profile

The nature of data set [2]: Intracellular distribution of Cis-Oxoplatin within the rat liver, total platinum in liver homogenate and fractions. The format is in vivo. Particulars: for Average concentration of total platinum in the liver homogenate: 1.5 mg Cis-Oxoplatin encapsulated in Siosomes of the compound, intravenous, 3 hours after administration. The source says:
• 1. The objective of the study to assess the intracellular distribution of Cis-Oxoplatin (as model drug molecule) in rat liver using Cis-Oxoplatin encapsulated in Siosomes®, using the following organosilicon compounds: • a. Sugar Organosilicon Compound: Didodecylsilyi-di(2,3,4,6-O-tetraacetyl-β-D-glucopyranosid (SIL 17) • b. Cationic Sugar Organosilicon Compound: 2.2-(Dimethyloctylsilylcholin)ethyl- β-D-glucopyranosid (SIL62) • c. Anionic Sugar Organosilicon Compound: 2-(Dimethyidecylsilyl)ethyl-β-D-glucopyranosidsulfate (SIL56) • d. Zwitterionic Sugar Organosilicon Compound: 2-(N,N,N, trimethylammonianonaylsilyl)ethyl- P-D-glucopyranosidsulfate (SIL66) • e. PEGylated Organosilicon Compound: 2-(Dimethyloctylsilylcholin)ethyl-β-D-PEG-acetylglucosaminether (SIL54) • 2. The different Siosomes® using each of the above mentioned organosilicon compounds have been prepared according to the procedures of this invention. The particle size range of the Siosomes® was 120-300 nm.
The Platinum-Siosomes®-Complex formulations were supplied in vials containing 10 mg each. Before administration, the contents of each vial was dissolved using 2 ml of sterile distilled water.
Each rat was administered with 1.5 mg investigative formulation, therefore each rat was administered 300 µl.
At the start of the study, all animals in all treatment groups received 1.5 mg of investigative drug. All drugs given via intravenous route were treated in an ultrasonic bath for five minutes at room temperature.
Tissue fractionation was performed by differential centrifugation yielding 5 fractions: • a. Mitochondrial fraction • b. Cytosol • c. Lysosomes • d. Microsomal fraction • e. Membrane fraction
Animals have been sacrificed 3 hours after the administration of the Siosomes® formulations. The livers have been removed from all animals. The liver homogenate has been prepared from the liver of each treatment group and used for the fractionation of the liver cells.
Each of the animals in the treatment control group for the determination of total platinum in the liver homogenate have been administered the Drug-Siosomes® formulations in the same way/procedures as the treatment groups.
Total platinum concentrations have been determined in each fraction for the treated and untreated animal groups. • Average animal weight = 211.64 ± 21.23 g • Average liver weight = 10.40 ± 1.27 g • Average concentration of total platinum in the liver homogenate of the treatment groups (control) • Group 1: Sugar Organosilicon Compound = 2.34 ± 0.82 µg/g • Group 2: Cationic Sugar Organosilicon Compound = 4.40 ± 1.30 µg/g • Group 3: Anionic Sugar Organosilicon Compound = 2.20 ± 0.90 µg/g • Group 4: Zwitterionic Sugar Organosilicon Compound = 3.10 ± 0.70 µg/g • Group 5: PEGylated Organosilicon Compound = 2.90 ± 1.20 µg/g

Data set [3] is classed as physicochemical. Conditions: unloaded Siosomes. How it is done:
The following are the general procedures according to this invention for the preparation of the Siosomes® using ethanol injection method: • An ethanol solution of the Sugar Silane was injected rapidly into an excess of de-ionized water through a syringe equipped with a fine needle. The force of injection is in many cases sufficient to achieve a good Siosomes® suspension. In some cases the Siosomes® suspension was sonicated during the injection and afterwards for additional 15-45 minutes. The ratio of injected ethanol to water is maintained in a way that the resulting suspension contains not more than 4-7.5% ethanol. The Siosomes® suspension was prepared with a Sugar Silane concentration of 0.5-2.5 mg/ml depending on the used Silane. With this concentration, the final Siosomes® suspension is ready for use for many applications and for the preparation of the lyophilised Siosomes® powder.
The unloaded Siosomes® prepared according to the procedures of this invention using ethanolic solution injection has been investigated for stability.
The following parameters have been considered: • The optimal particle size of the Siosomes® for the further application of the Siosomes® for the encapsulation of active, for screening and for the performance of in-vitro and in-vivo animal studies • The optimal manufacturing conditions to achieve the best particle size distribution for the required particle size (approximately 90 %) • The performance of the Stability testing for the unloaded Siosomes® using the particle size measurements and their distribution • The performance of the Stability testing of the prepared unloaded Siosomes® at 4°C, 25°C and 37°C and 42°C • Stability testing of the prepared encapsulated Siosomes® at: Acidic conditions, alkaline conditions, oxidative conditions and light
All measurements are performed with a Malvern Zetaziser. The Zetasizer was programmed to perform 3 x 15 measurements for each sample. For each temperature and reading point (for each temperature test series 12 sample measurements were performed) two samples has been tested.
The count rate is measured in Kcps (Kilo counts per second), and enables the samples quality and concentration to be checked.

The conditions of data set [4]: for Particle size range of the Doxorubicin-siosomes (nm): Example 18: doxorubicin-siosomes prepared from the single organosilicon compound; for Particle size of the siosomes (nm): Example 21 (i): nucleic acid-siosomes complex of the cationic silane; for Particle size range (nm): Example 16, Table 5: doxorubicin-sugar-siosomes of the cationic organosilicon compound.
Method: The siosome size was measured using Zetasizer (Malvern Instruments).
The obtained test samples were analyzed using a Zetasizer from Malvern to measure the particle size of the Siosomes® and its concentration (via determination of the count rate which related to the sample quality and concentration).
The Zetasizer from Malvern performs particle size measurements using a process called Dynamic Light Scattering (DLS). Dynamic Light Scattering (also known as PCS - Photon Correlation Spectroscopy) measures Brownian motion and relates this to the size of the particles. It does this by illuminating the particles with a laser and analyzing the intensity fluctuations in the scattered light. If the particles or molecules are illuminated with a laser, the intensity of the scattered light fluctuates at a rate that is dependent upon the size of the particles as smaller particles are "kicked" further by the solvent molecules and move more rapidly.
Data set [5] can be described thus: Encapsulation efficiency of nucleic acid in cationic silane siosomes. Conditions: Example 21 (i): nucleic acid-siosomes complex of the cationic silane. The format is physicochemical. From the text: The cationic silanes-lipid mixture and/or the empty cationic siosomes (the same or different siosomes prepared from the same or different silanes) loaded with buffer and/or cations (2^+) such as Ca^2+, Zn^2+, Mg^2+ at selected pH-values, is hydrated in an appropriate medium containing the nucleic acid.
The mixture will be vortexed and/or sonicated for a period of time at suitable temperature.
Procedures for characterisation, particle stirring, stability, release, lyophilisation, sterilisation, rehydration, storage, and administration were employed according to this invention.

[6] abbreviates: Example 18: doxorubicin-siosomes prepared from the single organosilicon compound.
[7] abbreviates: Example 16, Table 5: doxorubicin hydrochloride in sugar siosomes of the cationic organosilicon compound.

Like-named read-outs stand apart in the source and are kept apart here.

With `CCCCCCCCCCCC[Si](CCCCCCCCCCCC)(O[C@@H]1O[C@H](COC(C)=O)[C@@H](OC(C)=O)[C@H](OC(C)=O)[C@H]1OC(C)=O)O[C@@H]1O[C@H](COC(C)=O)[C@@H](OC(C)=O)[C@H](OC(C)=O)[C@H]1OC(C)=O` [SIL 17, Didoceclylsilyl-di(2,3,4,6-O-tetraacetyl-β-D-glucopyranosid)], the “Encapsulation efficiency (%)” value in data set [1] (setting [6]) was 80-85%. In data set [2] (rats), the “Average concentration of total platinum in the liver homogenate” value (“Average concentration of total platinum” for short) turned out to be 2.34 ± 0.82 µg/g. Moreover, the “stability of the aqueous solutions of the Siosomes suspensions” value in data set [3] (4°C, 25°C, 37°C and 42°C) is “stable for several days”. The count rate entry in data set [3] (42°C) is reported as “drops a little bit after several days but not drastically”; in data set [3] (over several days) it was “stable”. The “Particle size range of the Doxorubicin-siosomes (nm)” value in data set [4] was 180-240 nm.
In the case of “2-(N,N,N,Dimethylammonia-methyl-decylsilyl)ethyl-beta-D-glucopyranosid [SIL 65]”, the “Encapsulation efficiency (%)” value in data set [1] (setting [6]) was 60-70%. Moreover, the “Encapsulation efficiency (%)” value in data set [5] was 80-85%. For the same compound, in data set [4], the “Particle size range of the Doxorubicin-siosomes (nm)” value is on record as 200-250 nm and the “Particle size of the siosomes (nm)” value is 160-240 nm.
In the case of `CCCCCCCCCC[Si](C)(C)CCO[C@@H]1O[C@H](COS(=O)(=O)O)[C@@H](O)[C@H](O)[C@H]1O` [SIL 56, 2-(Dimethyldecylsilyl)ethyl-beta-D-glucopyranosidsulfate], the “Encapsulation efficiency (%)” value in data set [1] (setting [6]) is reported as 60-70%. In addition, the “Average concentration of total platinum” value in data set [2] (rats) is on record as 2.20 ± 0.90 µg/g. Further, the “Particle size range of the Doxorubicin-siosomes (nm)” value in data set [4] is listed as 200-220 nm.
For the compound `CCCCCCCCCC[Si](C)(C)CCO[C@@H]1O[C@H](CO)[C@@H](O)[C@H](O)[C@H]1O` [SIL 2, 2-(Dimethyldecylsilyl)ethyl-β-D-glucopyranosid], the particle size diameter entry in data set [3] (42°C) is reported as “growing after 4 days”.
Take “2. 2-(Dimethyloctylsilylcholin) ethyl-beta-D-glucopyranosid [SIL 62]”: the figures for the “Encapsulation efficiency (%)” value in data set [1] (setting [7]), in data set [1] (setting [6]) and in data set [5] were 70-80%, 70-75% and 75-80%, respectively. The “intracellular distribution of the encapsulated drug in all fractions” value in data set [2] (rat liver fractions (mitochondrial, cytosol, lysosomes, microsomal, membrane), intravenous application, compared with other Siosomes) is “significantly higher”. The “Average concentration of total platinum” value in data set [2] (rats) came to 4.40 ± 1.30 µg/g. The “concentration of total platinum in the liver homogenate compared with the other treatment groups” value in data set [2] (rats, i.v administration of Cis-Oxoplatin Siosomes, 3 hours) was “significantly higher”. Besides, in data set [4], the “Particle size range (nm)” value was 150-220 nm. For the same compound, the “Particle size range of the Doxorubicin-siosomes (nm)” value in data set [4] was 220-250 nm. In data set [4], the “Particle size of the siosomes (nm)” value is 110-180 nm.
With “2-(N,N,N,trimethylammonia nonanyllsilyl)ethyl-beta-D-glucopyranosid sulfate [SIL 66]”, the “Encapsulation efficiency (%)” value in data set [1] (setting [6]) is 55-70%. Besides, the “Average concentration of total platinum” value in data set [2] (rats) is given as 3.10 ± 0.70 µg/g. Besides, the “Particle size range of the Doxorubicin-siosomes (nm)” value in data set [4] was 150-220 nm.
On to “1. 2-(Di-N,N,N, trimethylammoniadecylsilyl) ethyl-beta-D-glucopyranosid [SIL 63]”, for which the “Encapsulation efficiency (%)” value in data set [1] (setting [6]) is 65-70%. In addition, the “Encapsulation efficiency (%)” value in data set [5] is 70-80%. For the same compound, in data set [4], the “Particle size range of the Doxorubicin-siosomes (nm)” value was 120-200 nm and the “Particle size of the siosomes (nm)” value is 150-250 nm.
On to “Di-N,N,N, trimethylammoniadidodecylsilyl-di(2,3,4,6-O-tetraacetyl-beta-D-glucopyranosid) [SIL 64]”, for which, in data set [1] (setting [7]), the “Encapsulation efficiency (%)” value is on record as 70-85%. In addition, the “Encapsulation efficiency (%)” value in data set [1] (setting [6]) is 70-75%. Moreover, the “Encapsulation efficiency (%)” value in data set [5] was 65-75%. In data set [4], the “Particle size range (nm)” value is reported as 120-200 nm, the “Particle size range of the Doxorubicin-siosomes (nm)” value was 140-220 nm and the “Particle size of the siosomes (nm)” value is reported as 120-220 nm.
Take “1. 2-(Dimethyldecylsilyl) ethyl-beta-D-glucosamin [SIL 61]”: in data set [1] (setting [7]), the “Encapsulation efficiency (%)” value is given as 75-82%. In data set [1] (setting [6]), the “Encapsulation efficiency (%)” value is 80-85%. Moreover, the “Encapsulation efficiency (%)” value in data set [5] is recorded as 80-85%. Besides, in data set [4], the “Particle size range (nm)” value is given as 120-240 nm, the “Particle size range of the Doxorubicin-siosomes (nm)” value is 200-220 nm and the “Particle size of the siosomes (nm)” value is 80-120 nm.

The record behind these values is EP2563337B1, “CARRIER AND TARGETING SYSTEM COMPRISING A SIOSOMAL COMPOSITION FOR INTRACELLULAR DELIVERY AND TARGETING OF ACTIVE SUBSTANCE” (Salama, Zoser B., priority 2010, dated 2011).
